Here are results for 5 compounds from US20220389061A1, “IMMUNOMODULATORS” (priority 2019, published 2022).

Read-outs that look alike come from different tables or passages of the source. Starred links: 1 amine or outer side, 2 acyl side, 3 side chain; linkers in the order of their positions; H or OH if unused. Positions of bridges follow the written chain, without caps; N, C: chain ends. Non-standard residues stand in square brackets, D forms with d. Residues, ends and D or L forms follow the SMILES beside them. Groups on a side chain read outwards from the residue. *: point of attachment. Trp(1-CH2CO2Me) = COC(=O)Cn1cc(C[C@H](N)C(=O)O)c2ccccc21; Trp(1-CH2COOH) = N[C@@H](Cc1cn(CC(=O)O)c2ccccc12)C(=O)O; X83 = FC(F)(F)c1cc(N*)cc(C(F)(F)F)c1; Hyp = O=C(O)[C@@H]1C[C@@H](O)CN1; X87 = FC(F)(F)c1ccccc1NC(=S)*; NMeNle = CCCC[C@H](NC)C(=O)O; X2 = c1ccc(-c2ccccc2N*)cc1; NMeA = CN[C@@H](C)C(=O)O; Dab = NCC[C@H](N)C(=O)O; X76 = Fc1cc(N*)cc(F)c1F; Dap = NC[C@H](N)C(=O)O; X89 = O=C(Oc1ccccc1)*; CO = O=C([*:1])[*:2]

The target of the experiment is T1, PD-1/PD-L1 (Homo sapiens, UniProt Q9NZQ7).
T1 construct: TVMV protease site linker (C); made in house; host or cells: HEK293T cells
As to the kind of experiment: PD-1/PD-L1 Homogenous Time-Resolved Fluorescence (HTRF) binding assay. The text has this: The ability of the compounds of formula (I) to bind to PD-L1 was investigated using a PD-1/PD-L1 Homogenous Time-Resolved Fluorescence (HTRF) binding assay.
The interaction of PD-1 and PD-L1 can be assessed using soluble, purified preparations of the extracellular domains of the two proteins. The PD-1 and PD-L1 protein extracellular domains were expressed as fusion proteins with detection tags, for PD-1, the tag was the Fc portion of Immunoglobulin (PD-1-Ig) and for PD-L1 it was the 6 histidine motif (PD-L1-His). All binding studies were performed in an HTRF assay buffer consisting of dPBS supplemented with 0.1% […] bovine serum albumin and 0.05% (v/v) Tween-20. For the h/PD-L1-His binding assay, inhibitors were pre-incubated with PD-L1-His (10 nM final) for 15 m in 4 μl of assay buffer, followed by addition of PD-1-Ig (20 nM final) in 1 μl of assay buffer and further incubation for 15 m. HTRF detection was achieved using europium crypate-labeled anti-Ig (1 nM final) and allophycocyanin (APC) labeled anti-His (20 nM final). Antibodies were diluted in HTRF detection buffer and 5 μl was dispensed on top of the binding reaction. […] Additional binding assays were established between the human proteins PD-1-Ig/PD-L2-His (20 & 5 nM, respectively) and CD80-His/PD-L1-Ig (100 & 10 nM, respectively). […]
(In general: TR-FRET usually uses a lanthanide donor and a delayed reading to cut background.)

Where [1] appears, read: PD-L1-His 10 nM pre-incubated with inhibitor, PD-1-Ig 20 nM, read-out: HTRF IC50.

T1 sequence (Q9NZQ7 18-239): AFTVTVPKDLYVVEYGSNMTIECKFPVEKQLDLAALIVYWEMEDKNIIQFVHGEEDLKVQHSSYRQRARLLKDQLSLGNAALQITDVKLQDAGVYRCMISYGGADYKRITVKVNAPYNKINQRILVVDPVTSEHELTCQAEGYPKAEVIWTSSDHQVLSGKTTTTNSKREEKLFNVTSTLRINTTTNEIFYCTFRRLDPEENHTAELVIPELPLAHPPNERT

For `CCCC[C@H]1C(=O)N(C)[C@@H](CCCC)C(=O)N[C@@H](CC(C)C)C(=O)N[C@H](C(=O)NCC(N)=O)CSCC(=O)N[C@@H](Cc2ccc(O)cc2)C(=O)N(C)[C@@H](C)C(=O)N[C@@H](CC(N)=O)C(=O)N2CCC[C@H]2C(=O)N[C@@H](CNC(=O)Nc2cc(F)c(F)c(F)c2)C(=O)N[C@@H](CC(C)C)C(=O)N2C[C@H](O)C[C@H]2C(=O)N[C@@H](Cc2c[nH]c3ccccc23)C(=O)N[C@@H](CCNC(=O)Nc2cc(F)c(F)c(F)c2)C(=O)N[C@@H](Cc2cn(CC(=O)O)c3ccccc23)C(=O)N1C` [Example 1012] ({CH2CO}-Y[NMeA]NP[Dap]([CO-X76])L[Hyp]W[Dab]([CO-X76])[Trp(1-CH2COOH)][NMeNle][NMeNle]LCG-NH2; thioether N-14), the IC50 (usually the concentration that gives 50% inhibition) under setting [1] came out at 4.8 nM.

As to `CCCC[C@H]1C(=O)N(C)[C@@H](CCCC)C(=O)N[C@@H](CC(C)C)C(=O)N[C@H](C(=O)NCC(N)=O)CSCC(=O)N[C@@H](Cc2ccc(O)cc2)C(=O)N(C)[C@@H](C)C(=O)N[C@@H](CC(N)=O)C(=O)N2CCC[C@H]2C(=O)N[C@@H](CNC(=O)Oc2ccccc2)C(=O)N[C@@H](CC(C)C)C(=O)N2C[C@H](O)C[C@H]2C(=O)N[C@@H](Cc2c[nH]c3ccccc23)C(=O)N[C@@H](CCNC(=O)Oc2ccccc2)C(=O)N[C@@H](Cc2cn(CC(=O)OC)c3ccccc23)C(=O)N1C` [Example 1013] ({CH2CO}-Y[NMeA]NP[Dap](X89)L[Hyp]W[Dab](X89)[Trp(1-CH2CO2Me)][NMeNle][NMeNle]LCG-NH2; thioether N-14), the IC50 was 5.2 nM. On to `CCCC[C@H]1C(=O)N(C)[C@@H](CCCC)C(=O)N[C@@H](CC(C)C)C(=O)N[C@H](C(=O)NCC(N)=O)CSCC(=O)N[C@@H](Cc2ccc(O)cc2)C(=O)N(C)[C@@H](C)C(=O)N[C@@H](CC(N)=O)C(=O)N2CCC[C@H]2C(=O)N[C@@H](CNC(=O)Nc2ccccc2-c2ccccc2)C(=O)N[C@@H](CC(C)C)C(=O)N2C[C@H](O)C[C@H]2C(=O)N[C@@H](Cc2c[nH]c3ccccc23)C(=O)N[C@@H](CCNC(=O)Nc2ccccc2-c2ccccc2)C(=O)N[C@@H](Cc2cn(CC(=O)O)c3ccccc23)C(=O)N1C` [Example 1014] ({CH2CO}-Y[NMeA]NP[Dap]([CO-X2])L[Hyp]W[Dab]([CO-X2])[Trp(1-CH2COOH)][NMeNle][NMeNle]LCG-NH2; thioether N-14), for which, under “read-out: HTRF IC50, PD-L1-His 10 nM pre-incubated with inhibitor, PD-1-Ig 20 nM”, the IC50 was determined as 0.7 nM. Turning to `CCCC[C@H]1C(=O)N(C)[C@@H](CCCC)C(=O)N[C@@H](CC(C)C)C(=O)N[C@H](C(=O)NCC(N)=O)CSCC(=O)N[C@@H](Cc2ccc(O)cc2)C(=O)N(C)[C@@H](C)C(=O)N[C@@H](CC(N)=O)C(=O)N2CCC[C@H]2C(=O)N[C@@H](CNC(=O)Nc2cc(C(F)(F)F)cc(C(F)(F)F)c2)C(=O)N[C@@H](CC(C)C)C(=O)N2C[C@H](O)C[C@H]2C(=O)N[C@@H](Cc2c[nH]c3ccccc23)C(=O)N[C@@H](CCNC(=O)Nc2cc(C(F)(F)F)cc(C(F)(F)F)c2)C(=O)N[C@@H](Cc2cn(CC(=O)O)c3ccccc23)C(=O)N1C` [Example 1015] ({CH2CO}-Y[NMeA]NP[Dap]([CO-X83])L[Hyp]W[Dab]([CO-X83])[Trp(1-CH2COOH)][NMeNle][NMeNle]LCG-NH2; thioether N-14), the half-inhibitory concentration (IC50) under setting [1] was 274 nM. On the same count and under the same terms, for `CCCC[C@H]1C(=O)N(C)[C@@H](CCCC)C(=O)N[C@@H](CC(C)C)C(=O)N[C@H](C(=O)NCC(N)=O)CSCC(=O)N[C@@H](Cc2ccc(O)cc2)C(=O)N(C)[C@@H](C)C(=O)N[C@@H](CC(N)=O)C(=O)N2CCC[C@H]2C(=O)N[C@@H](CNC(=S)Nc2ccccc2C(F)(F)F)C(=O)N[C@@H](CC(C)C)C(=O)N2C[C@H](O)C[C@H]2C(=O)N[C@@H](Cc2c[nH]c3ccccc23)C(=O)N[C@@H](CCNC(=S)Nc2ccccc2C(F)(F)F)C(=O)N[C@@H](Cc2cn(CC(=O)O)c3ccccc23)C(=O)N1C` [Example 1016] ({CH2CO}-Y[NMeA]NP[Dap](X87)L[Hyp]W[Dab](X87)[Trp(1-CH2COOH)][NMeNle][NMeNle]LCG-NH2; thioether N-14) the value was 3 nM.
